Reference: PubChem BioAssay AID1963828 (Molecular Pharmacology Branch, DTP, NCI, 2024)

System: 991263-137-R1-J2-PDC complex spheroid viability
Assay: Anticancer human tumor 991263-137-R1-J2-PDC patient-derived colon adenocarcinoma cell line growth inhibition [POLQ]
Settings: for IC50: curve of first compound; for viability, T/C: stronger effect = lower value
How it was run: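 Growth inhibition in 3D: complex spheroids (tumor PDC, HUVEC, MSC) treated with POLQ inhibitor combinations; where Cmax unknown, highest tested concentration 10 microM, except SN-38 at 1 microM.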

[1] = second compound 0.0316 µM, first compound 0.00316 µM
[2] = second compound 0.0316 µM, first compound 0.01 µM
[3] = second compound 0.0316 µM, first compound 0.0316 µM
[4] = second compound 0.0316 µM, first compound 0.1 µM
[5] = second compound 0.0316 µM, first compound 0.316 µM
[6] = second compound 0.0316 µM, first compound 1 µM
[7] = second compound 0.1 µM, first compound 0.00316 µM
[8] = second compound 0.1 µM, first compound 0.01 µM
[9] = second compound 0.1 µM, first compound 0.0316 µM
[10] = second compound 0.1 µM, first compound 0.1 µM
[11] = second compound 0.1 µM, first compound 0.316 µM
[12] = second compound 0.1 µM, first compound 1 µM
[13] = second compound 0.316 µM, first compound 0.00316 µM
[14] = second compound 0.316 µM, first compound 0.01 µM
[15] = second compound 0.316 µM, first compound 0.0316 µM
[16] = second compound 0.316 µM, first compound 0.1 µM
[17] = second compound 0.316 µM, first compound 0.316 µM
[18] = second compound 0.316 µM, first compound 1 µM
[19] = second compound 1 µM, first compound 0.00316 µM
[20] = second compound 1 µM, first compound 0.01 µM
[21] = second compound 1 µM, first compound 0.0316 µM
[22] = second compound 1 µM, first compound 0.1 µM
[23] = second compound 1 µM, first compound 0.316 µM
[24] = second compound 1 µM, first compound 1 µM
[25] = second compound 3.16 µM, first compound 0.00316 µM
[26] = second compound 3.16 µM, first compound 0.01 µM
[27] = second compound 3.16 µM, first compound 0.0316 µM
[28] = second compound 3.16 µM, first compound 0.1 µM
[29] = second compound 3.16 µM, first compound 0.316 µM
[30] = second compound 3.16 µM, first compound 1 µM
[31] = second compound 10 µM, first compound 0.00316 µM
[32] = second compound 10 µM, first compound 0.01 µM
[33] = second compound 10 µM, first compound 0.0316 µM
[34] = second compound 10 µM, first compound 0.1 µM
[35] = second compound 10 µM, first compound 0.316 µM
[36] = second compound 10 µM, first compound 1 µM
[37] = second compound 0.0316 µM, first compound 3.16 µM
[38] = second compound 0.0316 µM, first compound 10 µM
[39] = second compound 0.1 µM, first compound 3.16 µM
[40] = second compound 0.1 µM, first compound 10 µM
[41] = second compound 0.316 µM, first compound 3.16 µM
[42] = second compound 0.316 µM, first compound 10 µM
[43] = second compound 1 µM, first compound 3.16 µM
[44] = second compound 1 µM, first compound 10 µM
[45] = second compound 3.16 µM, first compound 3.16 µM
[46] = second compound 3.16 µM, first compound 10 µM
[47] = second compound 10 µM, first compound 3.16 µM
[48] = second compound 10 µM, first compound 10 µM
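Note: spheroids exposed to compounds for 7 days before readout.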
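Throughout, for viability, T/C: 100% = DMSO vehicle control viability.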

CCc1c2c(nc3ccc(O)cc13)-c1cc3c(c(=O)n1C2)COC(=O)[C@]3(O)CC + Cc1cccc(N(C)C(=O)C2C(O)CCN2c2nc(C)cc(C(F)(F)F)c2C#N)c1
IC50 (second compound 0.0316 µM): 67 nM
IC50 (second compound 0.1 µM): 100 nM
IC50 (second compound 0.316 µM): 175 nM
IC50 (second compound 1 µM): 72.3 nM
IC50 (second compound 3.16 µM): 105 nM
IC50 (second compound 10 µM): 153 nM
viability, T/C [1]: 103%
viability, T/C [2]: 91.3%
viability, T/C [3]: 48.6%
viability, T/C [4]: 53.7%
viability, T/C [5]: 36.3%
viability, T/C [6]: 27.8%
viability, T/C [7]: 96.7%
viability, T/C [8]: 119%
viability, T/C [9]: 67.2%
viability, T/C [10]: 57.1%
viability, T/C [11]: 36.1%
viability, T/C [12]: 28.4%
viability, T/C [13]: 97.6%
viability, T/C [14]: 96%
viability, T/C [15]: 73.4%
viability, T/C [16]: 60.1%
viability, T/C [17]: 41%
viability, T/C [18]: 33.6%
viability, T/C [19]: 111%
viability, T/C [20]: 111%
viability, T/C [21]: 64.3%
viability, T/C [22]: 50.6%
viability, T/C [23]: 48.7%
viability, T/C [24]: 32.5%
viability, T/C [25]: 109%
viability, T/C [26]: 92.5%
viability, T/C [27]: 70.4%
viability, T/C [28]: 53.5%
viability, T/C [29]: 33.9%
viability, T/C [30]: 36.6%
viability, T/C [31]: 108%
viability, T/C [32]: 81.5%
viability, T/C [33]: 67.9%
viability, T/C [34]: 53.2%
viability, T/C [35]: 46.2%
viability, T/C [36]: 24.5%

CNCc1ccc(-c2[nH]c3cc(F)cc4c3c2CCNC4=O)cc1 + Cc1cccc(N(C)C(=O)C2C(O)CCN2c2nc(C)cc(C(F)(F)F)c2C#N)c1
IC50 (second compound 0.0316 µM): > 10000 nM
IC50 (second compound 0.1 µM): > 10000 nM
IC50 (second compound 0.316 µM): > 10000 nM
IC50 (second compound 1 µM): > 10000 nM
IC50 (second compound 3.16 µM): > 10000 nM
IC50 (second compound 10 µM): > 10000 nM
viability, T/C [3]: 107%
viability, T/C [4]: 103%
viability, T/C [5]: 118%
viability, T/C [6]: 93.4%
viability, T/C [37]: 86.2%
viability, T/C [38]: 106%
viability, T/C [9]: 110%
viability, T/C [10]: 107%
viability, T/C [11]: 101%
viability, T/C [12]: 107%
viability, T/C [39]: 105%
viability, T/C [40]: 99.4%
viability, T/C [15]: 108%
viability, T/C [16]: 120%
viability, T/C [17]: 77.2%
viability, T/C [18]: 112%
viability, T/C [41]: 110%
viability, T/C [42]: 126%
viability, T/C [21]: 115%
viability, T/C [22]: 102%
viability, T/C [23]: 102%
viability, T/C [24]: 113%
viability, T/C [43]: 127%
viability, T/C [44]: 94.3%
viability, T/C [27]: 112%
viability, T/C [28]: 101%
viability, T/C [29]: 107%
viability, T/C [30]: 108%
viability, T/C [45]: 110%
viability, T/C [46]: 119%
viability, T/C [33]: 107%
viability, T/C [34]: 114%
viability, T/C [35]: 107%
viability, T/C [36]: 114%
viability, T/C [47]: 123%
viability, T/C [48]: 94.2%

COc1cccc(OCCCN)c1-c1cc(Nc2cnc(C#N)cn2)n[nH]1 + Cc1cccc(N(C)C(=O)C2C(O)CCN2c2nc(C)cc(C(F)(F)F)c2C#N)c1
IC50 (second compound 0.0316 µM): 677 nM
IC50 (second compound 0.1 µM): 730 nM
IC50 (second compound 0.316 µM): 879 nM
IC50 (second compound 1 µM): 994 nM
IC50 (second compound 3.16 µM): 833 nM
IC50 (second compound 10 µM): 624 nM
viability, T/C [1]: 113%
viability, T/C [2]: 104%
viability, T/C [3]: 90.1%
viability, T/C [4]: 85.2%
viability, T/C [5]: 61.2%
viability, T/C [6]: 42.8%
viability, T/C [7]: 111%
viability, T/C [8]: 95.8%
viability, T/C [9]: 104%
viability, T/C [10]: 88.2%
viability, T/C [11]: 62.2%
viability, T/C [12]: 45.4%
viability, T/C [13]: 105%
viability, T/C [14]: 99.6%
viability, T/C [15]: 91.5%
viability, T/C [16]: 94%
viability, T/C [17]: 71.4%
viability, T/C [18]: 47%
viability, T/C [19]: 96.2%
viability, T/C [20]: 101%
viability, T/C [21]: 96.7%
viability, T/C [22]: 83%
viability, T/C [23]: 76.7%
viability, T/C [24]: 49.1%
viability, T/C [25]: 110%
viability, T/C [26]: 108%
viability, T/C [27]: 89.3%
viability, T/C [28]: 94.8%
viability, T/C [29]: 79.9%
viability, T/C [30]: 43.4%
viability, T/C [31]: 93.7%
viability, T/C [32]: 96.4%
viability, T/C [33]: 91.6%
viability, T/C [34]: 76.1%
viability, T/C [35]: 55%
viability, T/C [36]: 46.5%

Nc1ccn(C2OC(CO)C(O)C2(F)F)c(=O)n1 (stereo not drawn) + Cc1cccc(N(C)C(=O)C2C(O)CCN2c2nc(C)cc(C(F)(F)F)c2C#N)c1
IC50 (second compound 0.0316 µM): 873 nM
IC50 (second compound 0.1 µM): 1310 nM
IC50 (second compound 0.316 µM): 1150 nM
IC50 (second compound 1 µM): 1910 nM
IC50 (second compound 3.16 µM): 3040 nM
IC50 (second compound 10 µM): 2030 nM
viability, T/C [3]: 85.6%
viability, T/C [4]: 74.6%
viability, T/C [5]: 57.2%
viability, T/C [6]: 48%
viability, T/C [37]: 52.4%
viability, T/C [38]: 42.4%
viability, T/C [9]: 99.4%
viability, T/C [10]: 66.4%
viability, T/C [11]: 60.6%
viability, T/C [12]: 62.4%
viability, T/C [39]: 40.3%
viability, T/C [40]: 41.5%
viability, T/C [15]: 82.6%
viability, T/C [16]: 70.5%
viability, T/C [17]: 54.9%
viability, T/C [18]: 52.6%
viability, T/C [41]: 48.4%
viability, T/C [42]: 38.5%
viability, T/C [21]: 75.6%
viability, T/C [22]: 63.8%
viability, T/C [23]: 53.1%
viability, T/C [24]: 50%
viability, T/C [43]: 53.6%
viability, T/C [44]: 46%
viability, T/C [27]: 69.2%
viability, T/C [28]: 64.2%
viability, T/C [29]: 54.7%
viability, T/C [30]: 54%
viability, T/C [45]: 53.2%
viability, T/C [46]: 45%
viability, T/C [33]: 80.2%
viability, T/C [34]: 70.3%
viability, T/C [35]: 63.5%
viability, T/C [36]: 49.6%
viability, T/C [47]: 51.8%
viability, T/C [48]: 41.5%
